Experimental data as given in patent US7842698B2, “Pyridine methylene azolidinones and use thereof phosphoinositide inhibitors” (Merck Serono S.A., priority 2004, dated 2010).
Counter-ions that a name gives are not always drawn. Like-named read-outs stand apart in the source and are kept apart here.

Assays:
[1] = system: Akt/PKB phosphorylation in Raw 264-7 macrophages; assay: Cell based ELISA to monitor PI3K inhibition: Akt/PKB phosphorylation in macrophages after stimulation with Complement 5a; conditions: Mus musculus, RAW264.7, 50 nM Complement 5a for 5 minutes, inhibitors pretreated 20 minutes, phospho Serine 473 Akt, read-out: Cell Assay (P-Akt, Elisa) IC50
Protocol: b) Cell Based ELISA to Monitor PI3K Inhibition:
The efficacy of compounds of the invention in inhibiting the PI3K induced Akt/PKB phosphorylation may be tested in the following cell based assay.
Measurement of Akt/PKB phosphorylation in macrophages after stimulation with Complement 5a: Raw 264: Raw 264-7 macrophages (cultured in DMEM-F12 medium containing 10% Fetal Calf serum and antibiotics) are plated at 20′000 cells/well in a 96 MTP 24 h before cell stimulation. Previous to the stimulation with 50 nM of Complement 5a during 5 minutes, Cells are serum starved for 2 h, and pretreated with inhibitors for 20 minutes. After stimulation cells are fixed in 4% formaldehyde for 20 minutes and washed 3 times in PBS containing 1% Triton X-100 (PBS/Triton). Endogenous peroxidase is blocked by a 20 minutes incubation in 0.6% H2O2 and 0.1% Sodium Azide in PBS/Triton and washed 3 times in PBS/Triton. Cells are then blocked by 60 minutes incubation with 10% fetal calf serum in PBS/Triton. Next, phosphorylated Akt/PKB is detected by an overnight incubation at 4° C. with first antibody (anti phospho Serine 473 Akt IHC, Cell Signaling) diluted 800-fold in PBS/Triton, containing 5% bovine serum albumin (BSA). […] The reaction is stopped by addition of 50 μl of 1 M SO4H2 and absorbance is read at 450 nm. […]

[2] = target: Human recombinant GST-PI3Kγ (Homo sapiens, UniProt P48736); assay: High throughput PI3K lipid kinase assay (scintillation proximity assay, neomycin-coated SPA beads); format: biochemical; conditions: [33P]γ-ATP, 180 minutes at room temperature
Text: a) High Throughput PI3K Lipid Kinase Assay (Binding Assay):
The efficacy of compounds of the invention in inhibiting the PI3K induced-lipid phosphorylation may be tested in the following binding assay.
The assay combines the scintillation proximity assay technology (SPA, Amersham) with the capacity of neomycin (a polycationic antibiotic) to bind phospholipids with high affinity and specificity. The Scintillation Proximity Assay is based on the properties of weakly emitting isotopes (such as ^3H, ^125I, ^33P). Coating SPA beads with neomycin allows the detection of phosphorylated lipid substrates after incubation with recombinant PI3K and radioactive ATP in the same well, by capturing the radioactive phospholipids to the SPA beads through their specific binding to neomycin.
To a 384 wells MTP containing 5 μl of the test compound of Formula (I) (solubilized in 6% DMSO; to yield a concentration of 100, 30, 10, 3, 1, 0.3, 0.1, 0.03, 0.01, 0.001 μM of the test compound), the following assay components are added. 1) 5 μl (58 ng) of Human recombinant GST-PI3Kγ (in Hepes 40 mM, pH 7.4, DTT 1 mM and ethyleneglycol 5%) 2) 10 μl of lipid micelles and 3) 10 μl of Kinase buffer ([^33P]γ-ATP 45 μM/60 n Ci, MgCl2 30 mM, DTT 1 mM, β-Glycerophosphate 1 mM, Na3VO4 100 μM, Na Cholate 0.3%, in Hepes 40 mM, pH 7.4). After incubation at room temperature for 180 minutes, with gentle agitation, the reaction is stopped by addition of 60 μl of a solution containing 100 μg of neomycin-coated PVT SPA beads in PBS containing ATP 10 mM and EDTA 5 mM. The assay is further incubated at room temperature for 60 minutes with gentle agitation to allow binding of phospholipids to neomycin-SPA beads. After precipitation of the neomycin-coated PVT SPA beads for 5 minutes at 1500× g, radioactive PtdIns(3)P is quantified by scintillation counting in a Wallac MicroBeta™ plate counter.
The values indicated in Table I below refer to the IC50 (nM) with respect to PI3Kγ, i.e. the amount necessary to achieve 50% inhibition of said target. Said values show a considerable inhibitory potency of thiazole compounds with regard to PI3Kγ.

Class I PI3-kinases = conditions: Fruman et al., 1998, cited from earlier work
phospholipases = conditions: cited from earlier work

Chain of Human recombinant GST-PI3Kγ (P48736 whole entry): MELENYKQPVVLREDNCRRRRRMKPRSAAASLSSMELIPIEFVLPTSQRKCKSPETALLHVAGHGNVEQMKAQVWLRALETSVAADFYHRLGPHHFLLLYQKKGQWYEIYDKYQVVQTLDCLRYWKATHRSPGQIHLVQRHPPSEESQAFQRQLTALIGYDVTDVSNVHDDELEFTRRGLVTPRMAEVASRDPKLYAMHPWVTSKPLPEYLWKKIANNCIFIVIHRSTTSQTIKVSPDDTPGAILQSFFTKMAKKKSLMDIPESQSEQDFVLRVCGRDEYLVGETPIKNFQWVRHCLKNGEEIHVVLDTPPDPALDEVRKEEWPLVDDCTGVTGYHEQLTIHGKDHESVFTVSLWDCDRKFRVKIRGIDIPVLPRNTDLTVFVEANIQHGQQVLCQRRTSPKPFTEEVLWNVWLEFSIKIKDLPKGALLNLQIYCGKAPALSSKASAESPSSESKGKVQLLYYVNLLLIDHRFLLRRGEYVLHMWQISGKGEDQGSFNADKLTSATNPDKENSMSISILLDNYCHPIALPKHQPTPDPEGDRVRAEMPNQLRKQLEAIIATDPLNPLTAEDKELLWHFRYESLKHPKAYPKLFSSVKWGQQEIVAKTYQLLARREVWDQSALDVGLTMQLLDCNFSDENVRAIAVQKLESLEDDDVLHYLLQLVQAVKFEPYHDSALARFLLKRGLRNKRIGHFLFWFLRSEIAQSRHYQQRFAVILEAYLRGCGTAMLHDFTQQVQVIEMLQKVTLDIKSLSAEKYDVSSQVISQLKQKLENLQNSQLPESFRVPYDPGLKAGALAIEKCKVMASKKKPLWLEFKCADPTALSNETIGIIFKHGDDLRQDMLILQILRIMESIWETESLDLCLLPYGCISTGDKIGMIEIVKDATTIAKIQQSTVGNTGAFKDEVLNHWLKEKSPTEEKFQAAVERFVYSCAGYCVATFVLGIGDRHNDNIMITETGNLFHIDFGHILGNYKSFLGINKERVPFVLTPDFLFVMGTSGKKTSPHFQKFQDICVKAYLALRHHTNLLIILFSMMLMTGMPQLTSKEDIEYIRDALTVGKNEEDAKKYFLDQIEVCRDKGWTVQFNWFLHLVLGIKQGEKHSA

| IC50 [2] | Structure (SMILES) | other results |
| --- | --- | --- |
| 20 nM | O=C1NC(=O)/C(=C/c2ccc3nccnc3n2)S1 [Example 4, 5-Pyrido[2,3-b]pyrazin-6-ylmethylene-thiazolidine-2,4-dione] |  |
| 35 nM | O=C1NC(=O)/C(=C/c2ccc3occc3n2)S1 [Example 5, 5-Furo[3,2-b]pyridin-5-ylmethylene-thiazolidine-2,4-dione] |  |
| 2 nM | O=C1NC(=S)SC1=Cc1ccc2ncnc(N3CCC(F)CC3)c2n1 [Example 6, 5-[4-(4-Fluoro-piperidin-1-yl)-pyrido[3,2-d]pyrimidin-6-ylmethylene]-2-thioxo-thiazolidin-4-one] |  |
| 7 nM | CN(C)CCCC(=O)N1CCc2cc(-n3cnc4ccc(/C=C5\SC(=O)NC5=O)nc43)ccc21 [Example 12, (5Z)-5-[(3-{1-[4-(dimethylamino)butanoyl]-2,3-dihydro-1H-indol-5-yl}-3H-imidazo[4,5-b]pyridin-5-yl)methylene]-1,3-thiazolidine-2,4-dione] |  |

More lines, now with the values behind:

| Structure (SMILES) | IC50 [2] | other results |
| --- | --- | --- |
| O=C1NC(=O)/C(=C/c2ccc3ncnc(N4CCCCC4)c3n2)S1 (as salt: potassium) [Example 1, (5Z)-5-{[4-(1-piperidinyl)pyrido[3,2-d]pyrimidin-6-yl]methylene}-1,3-thiazolidine-2,4-dione potassium salt] |  | melting point: 319 °C |
| O=C1NC(=O)/C(=C/c2ccc3ncnc(N4CCCCC4)c3n2)S1 [Example 1, (5Z)-5-{[4-(1-piperidinyl)pyrido[3,2-d]pyrimidin-6-yl]methylene}-1,3-thiazolidine-2,4-dione potassium salt] | 4 nM | IC50 [1]: < 10 nM |
| O=C1NC(=O)/C(=C/c2ccc3ncnc(N4CCC(C(F)(F)F)CC4)c3n2)S1 [Example 3, (5Z)-5-({4-[4-(trifluoromethyl)-1-piperidinyl]pyrido[3,2-d]pyrimidin-6-yl}methylene)-1,3-thiazolidine-2,4-dione potassium salt] | 6 nM | IC50 [1]: < 10 nM |
| COc1cc(OC)cc(-n2cnc3ccc(/C=C4\SC(=O)NC4=O)nc32)c1 [Example 8, (5Z)-5-{[3-(3,5-dimethoxyphenyl)-3H-imidazo[4,5-b]pyridin-5-yl]methylene}-1,3-thiazolidine-2,4-dione] | 10 nM |  |
| O=c1cc(N2CCOCC2)oc2c(-c3ccccc3)cccc12 [LY294002] |  | IC50 (Class I PI3-kinases; LY294002, read-out: IC50 against each of these PI3-kinases (Class I)): 15000 to 20000 nM; inhibitory activity on phospholipases (phospholipases): some inhibitory activity |
| COC[C@H]1OC(=O)c2coc3c2[C@@]1(C)C1=C(C3=O)[C@@H]2CCC(=O)[C@@]2(C)C[C@H]1OC(C)=O [wortmannin] |  | IC50 (Class I PI3-kinases; wortmannin, read-out: IC50 against each of the various Class I PI3-kinases): 1 to 10 nM |
